Measurements as given in BigSolDB 2.1.

Cc1ccc(C)c(O)c1
Conditions | solubility (mole fraction)
in ethyl acetate, 282.85 K | 0.414
in ethyl acetate, 289.95 K | 0.449
in ethyl acetate, 298.45 K | 0.494
in ethyl acetate, 304.35 K | 0.529
in ethyl acetate, 309.95 K | 0.563
in ethyl acetate, 314.75 K | 0.596
in ethyl acetate, 329.05 K | 0.713
in methanol, 281.05 K | 0.273
in methanol, 284.75 K | 0.291
in methanol, 289.15 K | 0.315
in methanol, 293.75 K | 0.342
in methanol, 299.45 K | 0.381
in methanol, 305.85 K | 0.425
in methanol, 307.25 K | 0.435
in methanol, 314.25 K | 0.492
in methanol, 317.25 K | 0.522
in methanol, 321.15 K | 0.563
in n-butanol, 281.15 K | 0.308
in n-butanol, 285.65 K | 0.331
in n-butanol, 289.9 K | 0.354
in n-butanol, 294.45 K | 0.38
in n-butanol, 298.9 K | 0.408
in n-butanol, 304.95 K | 0.449
in n-butanol, 311.65 K | 0.501
in n-butanol, 317.25 K | 0.551
in n-butanol, 322.75 K | 0.608
in n-butanol, 331.2 K | 0.706
in n-hexanol, 282.6 K | 0.325
in n-hexanol, 288.75 K | 0.356
in n-hexanol, 293.25 K | 0.378
in n-hexanol, 296.65 K | 0.4
in n-hexanol, 300.35 K | 0.424
in n-hexanol, 310.75 K | 0.498
in n-hexanol, 321.65 K | 0.598
in n-hexanol, 326.55 K | 0.652
in n-hexanol, 331.05 K | 0.707
in n-hexanol, 335.35 K | 0.764
